The source of these data is paper PMC4096218 (Journal of Medicinal Chemistry, 2014).

In one test the target is T1, EcUPPS (Escherichia coli, UniProt P60472).
T1 sequence (P60472 1-253): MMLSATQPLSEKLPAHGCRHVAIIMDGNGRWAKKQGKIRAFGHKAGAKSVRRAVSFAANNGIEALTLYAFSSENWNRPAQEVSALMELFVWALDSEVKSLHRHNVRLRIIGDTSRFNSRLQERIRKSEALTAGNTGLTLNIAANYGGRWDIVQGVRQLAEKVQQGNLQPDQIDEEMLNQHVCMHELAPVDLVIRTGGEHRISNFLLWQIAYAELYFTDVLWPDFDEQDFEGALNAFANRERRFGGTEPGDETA
Conditions: inhibitor in EcUPPS X-ray structure 2E98; cited from earlier work.

In test [1] the test system is Bacillus anthracis strain Sterne. The test is described as follows: microbe, parasite or virus in culture. It is filed as cell-based.
Test [2] deals with panel of both Gram-positive and Gram-negative bacteria. It is filed as cell-based. Conditions: for MIC values (range in words): B. anthracis Sterne, MRSA, VRE, L. monocytogenes.

Values after ≈ are worked out from the molar mass of the structure shown.

Consider `O=P(O)(O)C(O)(Cc1cccc(-c2cccc3c2oc2ccccc23)c1)P(=O)(O)O` [BPH-629], for which the IC50 at EcUPPS was approximately 300 nM.
`Cc1cc(Cl)ccc1-c1ccc(/C=C2\SC(=S)N(CC(=O)O)C2=O)o1` [Compound 1]: the MIC in test [1] fell in the range of 1 to 2 µg/mL (≈ 2.54 to 5.08 µM). For the same molecule, in test [2], the “MIC values (range in words)” value is given as “high ng/mL to low μg/mL range”, the “growth of Gram negatives” value was “did not inhibit the growth of Gram negatives” and the “growth of Gram positives” value was “inhibited the growth of Gram positives”.
For the molecule `O=C(O)CCN1C(=O)/C(=C/c2ccc(-c3ccc(Cl)cc3Cl)o2)SC1=S` [Compound 4], in test [2], the “MIC values (range in words)” value is recorded as “high ng/mL to low μg/mL range”, the “growth of Gram negatives” value is “did not inhibit the growth of Gram negatives” and the “growth of Gram positives” value is “inhibited the growth of Gram positives”.
